The numbers were not newly measured in US20160347856A1, “Use of Anti-MUC1 Maytansinoid Immunoconjugate Antibody for the Treatment of Solid Tumors” (SANOFI, priority 2013, published 2016), which cites them from elsewhere.

For data set [1] the following is noted: poor therapeutic effects because of high systemic toxicity; Foster et al. (1996), Wolff et al. (1996).
For data set [2] the following is noted: Bhuyan et al. (1982).
In the next data set the test system is mice. Particulars: single intravenous dose of 12.5 μg/kg; Reynolds et al. (1986).

On to `CCN(CC)c1ccc2cc(C(=O)Nc3ccc4[nH]c(C(=O)N5C[C@@H](CCl)c6c5cc(OC(=O)Nc5ccccc5)c5[nH]cc(C)c65)cc4c3)oc2c1` [Carzelesin], for which, in data set [1], the Clinical evaluation result was “disappointing results”.

Turning to `Cc1c[nH]c2c1[C@@]13C[C@@H]1CN(C(=O)c1cc4cc(NC(=O)c5cc6ccccc6o5)ccc4[nH]1)C3=CC2=O` [Adozelesin], in data set [1], the Clinical evaluation result was “disappointing results”.

Consider `COc1c(O)c2c(c3cc(C(=O)N4CCc5c4c(O)c(OC)c4[nH]c(C(=O)N6CC7CC78C6=CC(=O)c6[nH]cc(C)c68)cc54)[nH]c13)CCN2C(N)=O` (stereo not shown) [CC-1065], for which, in data set [2], the “Potency in vitro relative to doxorubicin, methotrexate and vincristine” value is “about 1000 fold”. For the same compound, the “Toxicity after administration to mice” value in the data set on mice is listed as “delayed hepatotoxicity leading to mortality on day 50”.
